Test results reported in patent US20110159603A1, “FLUORESCENT PROBE SPECIFIC TO HYDROGEN PEROXIDE” (THE UNIVERSITY OF TOKYO, priority 2008, published 2011).

What was measured:
RAW264.7 cells = assay: Detection of hydrogen peroxide in live cells by fluorescence microscopy; type: cell-based; conditions: RAW264.7 cells stimulated with LPS 50 μg/ml and IFN-γ 100 unit/ml for 12 hours vs non-stimulated; observed 2 hours after loading; excitation 470 to 495 nm, fluorescence 510 to 550 nm
Protocol: It was confirmed that Compound 5 was also usable for detection of hydrogen peroxide in live cells. The RAW264.7 cells were stimulated with a lipopolysaccharide (LPS, 50 μg/ml) and interferon-γ (IFN-γ, 100 unit/ml) for 12 hours, then a diacetylated compound of Compound 5 was loaded on the cells, and 2 hours later, the cells were observed under a fluorescence microscope using the U-MNIBA2 filter set produced by Olympus Corporation (excitation wavelength: 470 to 495 nm, fluorescence wavelength: 510 to 550 nm) (FIG. 2).

[1] = Fluorescence spectrum change on adding hydrogen peroxide; conditions: excitation 490 nm
Protocol: [The source words this procedure for another target and reports this target under the same test.] (§1) The addition of hydroxyl radical (10 μM) to the test system was performed by the method of adding hydrogen peroxide (10 μM) to a solution of Compound 5, and then immediately adding a solution of iron(II) perchlorate (10 μM) in purified water to the mixture to generate hydroxyl radicals by the Fenton reaction.

[2] = Relative fluorescence intensity with superoxide from hypoxanthine/xanthine oxidase (HPX/x.o.) system; conditions: compound 10 μM
[3] = Relative fluorescence intensity at 520 nm on adding other reactive oxygen species; conditions: hydroxyl radical 10 μM, peroxynitrite 10 μM, hypochlorite ion 10 μM, NOC13 100 μM or EP-1 100 μM; compound 1 μM; excitation 490 nm
Protocol: as §1

## N#Cc1ccc(C(=O)C(=O)c2ccc(-c3c4ccc(=O)cc-4oc4cc(O)ccc34)c(C(=O)O)c2)cc1 [Compound 5, 5-(4-cyanobenzoyl)carbonylfluorescein]
RAW264.7 cells
  fluorescence intensity in cells: higher when loading Compound 5 on the stimulated cells (B) than on the non-stimulated cells (A)
[1]; hydrogen peroxide 100 μM added to compound 1 μM, after 5, 15, 30 and 60 minutes
  change of the fluorescence spectrum over time: increase of fluorescence intensity was observed over time
[1]; hydrogen peroxide 100 μM for 30 minutes, compound 1 μM
  relative fluorescence intensity at 520 nm: increase of fluorescence intensity was observed only when hydrogen peroxide was added
[2]; HPX/x.o. system with SOD 60 Unit/L added
  relative fluorescence intensity at 520 nm: no significant change in the degree of the increase of fluorescence intensity
[2]; HPX/x.o. system with catalase 100 Unit/L added
  relative fluorescence intensity at 520 nm: reduced to around the level of the control
[2]; superoxide 10 μM, HPX/x.o. system (x.o. 2.38 mUnit/L, HPX 10 μM), versus control
  relative fluorescence intensity at 520 nm: higher in the case using the HPX/x.o. system than in the case of the control
[3]
  relative fluorescence intensity at 520 nm: no increase of fluorescence intensity
